Reference: patent publication US5091365A, “Cyclic peptides as promoters of absorption on administration onto the mucosa” (Hoechst Aktiengesellschaft, priority 1987, dated 1992)
Values belong to the compound of their own block, whether it stands above or below them.

What was measured:
[1] = system: female rats; assay: Ovulation induction in PMSG-pretreated, phenobarbital-blocked female rats (number of ova counted); type: in vivo, rat
Procedure: 1. The effect of cyclic peptides on the nasal and rectal absorption of LHRH (gonadorelin) and LHRH agonists (for example buserelin) was investigated in the following way: female rats weighing 60 g are pretreated with horse serum gonadotropin (PMSG) 10 I.U. (day 1, 09:00) for follicle stimulation. On the third day after the pretreatment, the ovulation which spontaneously occurs at about 14:00 is suppressed by injection of phenobarbital (4 mg/animal i.p. around 13:00). The treatment with the test substance (for example LHRH or buserelin intranasally in a physiologically tolerated buffer solution of pH 3.0-7.5 in a volume of 2-20 μl, rectal administration of suppositories etc.) is carried out at about 13:30. This treatment induces ovulation dose-dependently. On the next day of the experiment (day 4) the animals are sacrificed at about 09:00, both uterine tubes are dissected out and, after staining with patent blue, the number of ova is counted under a stereomicroscope (ovulatory effect of the test substances). The increase in the absorption of the test substances from mucosal surfaces is assessed by comparison of the effect on ovulation in the absence or after addition of, for example, bacitracin 0.001-0.05M. It is also possible to use as parameter of the effect in the same design of experiment the dose-dependent increase in luteinizing hormone (LH) in the serum one hour after treatment. [Sandow J, von Rechenberg W & Jerzabek G (1976): The effect of LHRH, prostaglandins and synthetic analogues of LHRH on ovarian metabolism. Europ. J. Obstetr. Gynaec. Reprod. Biol. 6, 185-190.]

[2] = system: female rats; assay: Release of growth hormone (GH) in serum of PMSG-pretreated rats, radioimmunoassay; type: in vivo, rat; details: for finding with other GHRH agonists on addition of bacitracin (GH release): compared with (DAla2) GRF-29 amide: 40 μg without = 20 μg with 0.001M bacitracin
Procedure: 3. The effect of cyclic peptides of the nasal absorption of GHRH analogs was investigated in the following way: In the same model as described for the ovulatory effect of LHRH, it is possible on the third day after the pretreatment with PMSG to test the release of growth hormone (GH). GH in serum is determined 15-120 minutes after the treatment (for example nasally or rectally) by a specific radioimmunoassay.

[3] = system: female rats; assay: Increase in luteinizing hormone (LH) in serum, same design of experiment in female rats; type: in vivo, rat
[4] = system: male rats; assay: LH release in male rats under urethane anesthesia over 6-7 hours; type: in vivo, rat; details: aid 0.01M, 10 ng of buserelin
Procedure: 2. An example of another method suitable for detecting the enhancement of the effect due to increased absorption is determination of the LH release in male rats (weighing 100 g, under urethane anesthesia). […] It emerged that both bacitracin and colistin and polymyxin B (0.01M) increased the effect of a dose of 10 ng of buserelin, measured by the areas under the curve, by a factor of 3.3-14.

[5] = system: male rats; assay: Corticosterone release in serum of male rats after nasal ACTH analog, radioimmunoassay; type: in vivo, rat; details: over 3 h after nasal alsactide (ACTH-17) 5 μg in the presence of 0.01M bacitracin
Procedure: 4. The effect of cyclic peptides on the absorption of ACTH (corticotropin) and ACTH analogs was investigated in male rats (weighing 100 g) after treatment under anesthesia with pentobarbital or ether. The corticosterone release in the serum was determined by a specific radioimmunoassay as a parameter of the effect. It emerged that the corticosterone release over 3 h after nasal treatment, for example, with the ACTH analog alsactide (ACTH-17) in a dose of 5 μg was increased by a factor of 5 in the presence of 0.01M bacitracin.

[6] = system: male rats; assay: Serum calcium concentration in male rats after intranasal salmon calcitonin; type: in vivo, rat; details: 0.6-1.2 μg of salmon calcitonin intranasal, addition of 0.01M bacitracin, 1-6 h
Procedure: 5. The effect of cyclic peptides on the absorption of calcitonin and calcitonin analogs (for example salmon calcitonin) can be investigated on male rats weighing 100 or 200 g, for example after intranasal treatment with salmon calcitonin, by determination of the serum calcium concentration over a period of 1-6 h after the treatment. It was found in this that the effect of 0.6-1.2 μg of salmon calcitonin was increased by a factor of 4-6 by addition of, for example, 0.01M bacitracin.

[7] = system: isolated gastric mucosa of the guinea pig; assay: Tolerability: patent blue permeation through isolated guinea pig gastric mucosa
Description: 6. The tolerability of various cyclic peptides as are used as aids to increase absorption can be tested on the isolated gastric mucosa of the guinea pig. [Wirth K, Bickel M & Deutschlander N (1987): Patent blue permeation through the isolated guinea pig gastric mucosa: a quantitative method for the assessment of gastric irritants. Med. Sci. Res. 15, 881.]

[8] = system: rat; assay: Increase of absorption of peptide active substances from the mucosa in the rat; type: in vivo
Procedure: 1. The effect of cyclic peptides on the nasal and rectal absorption of LHRH (gonadorelin) and LHRH agonists (for example buserelin) was investigated in the following way: female rats weighing 60 g are pretreated with horse serum gonadotropin (PMSG) 10 I.U. (day 1, 09:00) for follicle stimulation. On the third day after the pretreatment, the ovulation which spontaneously occurs at about 14:00 is suppressed by injection of phenobarbital (4 mg/animal i.p. around 13:00). […] On the next day of the experiment (day 4) the animals are sacrificed at about 09:00, both uterine tubes are dissected out and, after staining with patent blue, the number of ova is counted under a stereomicroscope (ovulatory effect of the test substances). The increase in the absorption of the test substances from mucosal surfaces is assessed by comparison of the effect on ovulation in the absence or after addition of, for example, bacitracin 0.001-0.05M. […]
2. […] It emerged that both bacitracin and colistin and polymyxin B (0.01M) increased the effect of a dose of 10 ng of buserelin, measured by the areas under the curve, by a factor of 3.3-14.
3. […] GH in serum is determined 15-120 minutes after the treatment (for example nasally or rectally) by a specific radioimmunoassay.

[9] = system: rectal mucosa; assay: Rectal mucosa tolerability of hard fat suppositories in rats; type: in vivo, rat; details: hard fat suppositories with 1 mg of bacitracin, rats weighing 100 g, 3 hours after treatment
Procedure: Furthermore, the compounds according to the invention cause no sensation of pain in humans on nasal administration of 1 to 200 μl of a concentration of 10^-5 to 10^-1 mol/l. […] Local administration of the same concentration by vaginal, rectal or buccal drug forms (i.e., for example, films, tablets, suppositories) likewise causes no irritation to the mucosa.

Compound: CC(C)C[C@H](NC(=O)CNC(=O)[C@H](Cc1ccc(O)cc1)NC(=O)[C@H](CO)NC(=O)[C@H](Cc1c[nH]c2ccccc12)NC(=O)[C@H](Cc1cnc[nH]1)NC(=O)[C@@H]1CCC(=O)N1)C(=O)N[C@@H](CCCNC(=N)N)C(=O)N1CCC[C@H]1C(=O)NCC(N)=O [LHRH, LHRH (gonadorelin)]
dose of LHRH giving the same ovulatory effect, without aid ([1]; LHRH in physiological saline containing 0.1% gelatin): 8 µg

Compound: (DAla2) GRF-29 amide
dose of (DAla2) GRF-29 amide giving corresponding GH release effect, without bacitracin ([2]; i.n., without bacitracin): 40 µg

Compound: bacitracin
dose of LHRH giving the same ovulatory effect, with aid ([1]; LHRH in a solution of 0.001M bacitracin, equals effect of 8 μg without aid): 2 µg
dose of buserelin giving the same ovulatory effect, with aid ([1]; buserelin in a solution of 0.001M bacitracin, equals effect of 80 ng without aid): 20 ng
dose of buserelin at which ovulation was induced, rectal suppositories, after addition of bacitracin ([1]; rectal treatment of rats with buserelin suppositories plus bacitracin): 50 ng
enhancement of absorption, factor, from LH release by buserelin ([3]; buserelin in the presence of 0.001M bacitracin): more than 3
increase of the effect of buserelin on LH release, areas under the curve, factor [4]: 3.3-14
dose of (DAla2) GRF-29 amide giving corresponding GH release effect, with bacitracin ([2]; i.n., addition of 0.001M bacitracin, equals effect of 40 μg without): 20 µg
increase of corticosterone release, factor [5]: 5
increase of the effect of salmon calcitonin (serum calcium), factor [6]: 4-6
concentration that can be placed on the mucosa without damage [7]: more than 0.006 M
increase of absorption of LHRH agonists, GHRH agonists and similar active substances, factor ([8]; addition of 0.001M bacitracin): 3-4
inflammatory change of the rectal mucosa [9]: no inflammatory change

Compound: CCNC(=O)[C@@H]1CCCN1C(=O)[C@H](CCCNC(=N)N)NC(=O)[C@H](CC(C)C)NC(=O)[C@@H](COC(C)(C)C)NC(=O)[C@H](Cc1ccc(O)cc1)NC(=O)[C@H](CO)NC(=O)[C@H](Cc1c[nH]c2ccccc12)NC(=O)[C@H](Cc1cnc[nH]1)NC(=O)[C@@H]1CCC(=O)N1 [buserelin]
dose of buserelin giving the same ovulatory effect, without aid ([1]; buserelin in physiological saline containing 0.1% gelatin): 80 ng
dose of buserelin at which ovulation occurred, rectal suppositories, without bacitracin ([1]; rectal treatment of rats with buserelin suppositories, no aid): 400 ng

concentration required to increase absorption in the rat ([8]; rat, in vivo): 0.02 M
Compound: C[C@H](CCC(=O)O)[C@H]1CC[C@H]2[C@@H]3CC[C@@H]4C[C@H](O)CC[C@]4(C)[C@H]3C[C@H](O)[C@]12C [deoxycholic acid]

Compound: (DAla2, NLeu27) GRF-29 amide
finding with other GHRH agonists on addition of bacitracin (GH release) [2]: similar

Compound: (Leu27, Gly45) GHRH (1-44)
finding with other GHRH agonists on addition of bacitracin (GH release) [2]: similar

Compound: colistin
enhancement of LHRH effect on investigation of the LH release ([3]; LHRH in the presence of 0.001M colistin): this effect also emerged
increase of the effect of buserelin on LH release, areas under the curve, factor [4]: 3.3-14

Compound: polymyxin B
increase of the effect of buserelin on LH release, areas under the curve, factor [4]: 3.3-14
